# Experimental data: patent US9481669B2, “Pladienolide pyridine compounds and methods of use” (Eisai R&D Management Co., Ltd., priority 2014, dated 2016)
# Tested on: alternative splicing in Nalm-6 isogenic cells
# Experiment: Alternative splicing modulation (nCounter Nanostring analysis)
# Format: cell-based, human
# Details: 10×GI50 for 6 hours
# Procedure: The “+” and “−” indicate positive or negative values, respectively, in the shade key, which indicates the varying levels of expression of the different splice junctions.
# The modulation of alternative splicing for E7107 and Compound 2 was determined using the nCounter® analysis system (NanoString Techologies, Inc., Seattle, Wash.). Nalm-6 isogenic cells were treated with Compound 2 or E7107 (obtained from Eisai, Inc.) at 10×GI50 for 6 hours. RNA was isolated using RiboPure™ RNA purification kit (Ambion®) and used for analysis. The RNA was retrotranscribed according to the instructions of the SuperScript® VILO™ cDNA synthesis kit (Invitrogen™) and 0.04 μl of cDNA was used for qPCR.
smiles,measurement,value
"C/C(=C\C=C\[C@@H](C)c1ccccn1)[C@H]1OC(=O)C[C@H](O)CC[C@@](C)(O)[C@@H](OC(=O)N2CCN(C)CC2)/C=C/[C@@H]1C [Compound 2, (2S,3 S,6S,7R,10R,E)-7,10-dihydroxy-3,7-dimethyl-12-oxo-2-((R,2E,4E)-6-(pyridin-2-yl)hepta-2,4-dien-2-yl)oxacyclododec-4-en-6-yl 4-methylpiperazine-1-carboxylate]",splicing modulation profile,distinct from the profile of E7107
